Legend:
Sitophilus oryzae [1] = assay: Insecticidal activity against Sitophilus oryzae (rice weevil) assessed as mortality at 1000 ug/g after 10 days by food poison technique relative to acetone-treated control; type: functional
Triticum aestivum [2] = assay: Phytotoxicity in Triticum aestivum (wheat) assessed as shoot growth at 500 ug/ml pre-soaked for 60 min measured after 96 hr relative to acetone-treated control; type: organism-based; conditions: in vivo
Sitophilus oryzae [3] = assay: Repellent activity against Sitophilus oryzae (rice weevil) assessed as settling responses at 100 ug/g preincubated for 12 hr prior to inoculation measured after 24 hr by food preference chamber method (reference value: 49.45 +/- 2.65 %); type: functional
Sitophilus oryzae [4] = assay: Insecticidal activity against Sitophilus oryzae (rice weevil) assessed as mortality at 2000 ug/g after 20 days by food poison technique relative to acetone-treated control; type: functional
Sitophilus oryzae [5] = assay: Insecticidal activity against Sitophilus oryzae (rice weevil) assessed as mortality at 200 ug/g after 15 days by food poison technique relative to acetone-treated control; type: functional
Sitophilus oryzae [6] = assay: Insecticidal activity against Sitophilus oryzae (rice weevil) assessed as mortality at 3000 ug/g after 15 days by food poison technique relative to acetone-treated control; type: functional
Sitophilus oryzae [7] = assay: Insecticidal activity against Sitophilus oryzae (rice weevil) assessed as mortality at 600 ug/g after 15 days by food poison technique relative to acetone-treated control; type: functional
Sitophilus oryzae [8] = assay: Insecticidal activity against Sitophilus oryzae (rice weevil) assessed as mortality at 200 ug/g after 10 days by food poison technique relative to control; type: functional
Sitophilus oryzae [9] = assay: Insecticidal activity against Sitophilus oryzae (rice weevil) assessed as mortality at 1000 ug/g after 20 days by food poison technique relative to acetone-treated control; type: functional
Triticum aestivum [10] = assay: Phytotoxicity in Triticum aestivum (wheat) assessed as germination rate at 500 ug/ml pre-soaked for 30 min measured after 48 hr relative to acetone-treated control; type: organism-based; conditions: in vivo
Sitophilus oryzae [11] = assay: Insecticidal activity against Sitophilus oryzae (rice weevil) assessed as mortality after 10 days by food poison technique; type: functional
Sitophilus oryzae [12] = assay: Insecticidal activity against Sitophilus oryzae (rice weevil) assessed as mortality at 400 ug/g after 10 days by food poison technique relative to acetone-treated control; type: functional
Sitophilus oryzae [13] = assay: Insecticidal activity against Sitophilus oryzae (rice weevil) assessed as mortality at 600 ug/g after 10 days by food poison technique relative to acetone-treated control; type: functional
Sitophilus oryzae [14] = assay: Insecticidal activity against Sitophilus oryzae (rice weevil) assessed as mortality at 400 ug/g after 15 days by food poison technique relative to acetone-treated control; type: functional
Triticum aestivum [15] = assay: Phytotoxicity in Triticum aestivum (wheat) assessed as root growth at 500 ug/ml pre-soaked for 30 min measured after 120 hr relative to acetone-treated control; type: organism-based; conditions: in vivo
Sitophilus oryzae [16] = assay: Insecticidal activity against Sitophilus oryzae (rice weevil) assessed as mortality at 3000 ug/g after 5 days by food poison technique relative to acetone-treated control; type: functional
Triticum aestivum [17] = assay: Phytotoxicity in Triticum aestivum (wheat) assessed as shoot growth at 500 ug/ml pre-soaked for 60 min measured after 120 hr relative to acetone-treated control; type: organism-based; conditions: in vivo
Triticum aestivum [18] = assay: Phytotoxicity in Triticum aestivum (wheat) assessed as germination rate at 500 ug/ml pre-soaked for 30 min measured after 24 hr relative to acetone-treated control; type: organism-based; conditions: in vivo
Triticum aestivum [19] = assay: Phytotoxicity in Triticum aestivum (wheat) assessed as root growth at 500 ug/ml pre-soaked for 30 min measured after 96 hr relative to acetone-treated control; type: organism-based; conditions: in vivo
Sitophilus oryzae [20] = assay: Repellent activity against Sitophilus oryzae (rice weevil) assessed as settling responses at 50 ug/g preincubated for 12 hr prior to inoculation measured after 24 hr by food preference chamber method (reference value: 49.45 +/- 2.65 %); type: functional
Triticum aestivum [21] = assay: Phytotoxicity in Triticum aestivum (wheat) assessed as root growth at 500 ug/ml pre-soaked for 60 min measured after 48 hr relative to acetone-treated control; type: organism-based; conditions: in vivo
Triticum aestivum [22] = assay: Phytotoxicity in Triticum aestivum (wheat) assessed as shoot growth at 500 ug/ml pre-soaked for 30 min measured after 48 hr relative to acetone-treated control; type: organism-based; conditions: in vivo
Sitophilus oryzae [23] = assay: Insecticidal activity against Sitophilus oryzae (rice weevil) assessed as mortality at 200 ug/g after 20 days by food poison technique relative to acetone-treated control; type: functional
Triticum aestivum [24] = assay: Phytotoxicity in Triticum aestivum (wheat) assessed as germination rate at 500 ug/ml pre-soaked for 60 min measured after 96 hr relative to acetone-treated control; type: organism-based; conditions: in vivo
Triticum aestivum [25] = assay: Phytotoxicity in Triticum aestivum (wheat) assessed as root growth at 500 ug/ml pre-soaked for 60 min measured after 120 hr relative to acetone-treated control; type: organism-based; conditions: in vivo
Triticum aestivum [26] = assay: Phytotoxicity in Triticum aestivum (wheat) assessed as germination rate at 500 ug/ml pre-soaked for 60 min measured after 72 hr relative to acetone-treated control; type: organism-based; conditions: in vivo
Sitophilus oryzae [27] = assay: Insecticidal activity against Sitophilus oryzae (rice weevil) assessed as mortality at 3000 ug/g after 20 days by food poison technique relative to acetone-treated control; type: functional
Sitophilus oryzae [28] = assay: Insecticidal activity against Sitophilus oryzae (rice weevil) assessed as mortality at 200 ug/g after 5 days by food poison technique relative to acetone-treated control; type: functional
Sitophilus oryzae [29] = assay: Insecticidal activity against Sitophilus oryzae (rice weevil) assessed as mortality at 0.05 ug/g after 15 days by food poison technique relative to acetone-treated control; type: functional
Triticum aestivum [30] = assay: Phytotoxicity in Triticum aestivum (wheat) assessed as root growth at 500 ug/ml pre-soaked for 30 min measured after 72 hr relative to acetone-treated control; type: organism-based; conditions: in vivo

## C=C1C(=O)O[C@@H]2C[C@@]3(C)CCCC(=C)[C@@H]3C[C@H]12 [ISOALANTOLACTONE]
Sitophilus oryzae [1]
  mortality: 64.28%
Triticum aestivum [2]
  Activity: 47.9%
Sitophilus oryzae [3]
  Activity: 12.13%
Sitophilus oryzae [4]
  mortality: 100%
Sitophilus oryzae [5]
  mortality: 17.95%
Sitophilus oryzae [6]
  mortality: 100%
Sitophilus oryzae [7]
  mortality: 56.41%
Sitophilus oryzae [8]
  mortality: 16.67%
Sitophilus oryzae [9]
  mortality: 74.36%
Triticum aestivum [10]
  Activity: 94%
Sitophilus oryzae [11]
  LC50: 707.21 µg/g
Sitophilus oryzae [12]
  mortality: 23.81%
Sitophilus oryzae [13]
  mortality: 55.38%
Sitophilus oryzae [14]
  mortality: 30.77%
Triticum aestivum [15]
  Activity: 101.2%
Sitophilus oryzae [16]
  mortality: 100%
Triticum aestivum [17]
  Activity: 63.5%
Triticum aestivum [18]
  Activity: 106.7%
Triticum aestivum [19]
  Activity: 99.1%
Sitophilus oryzae [20]
  Activity: 12.87%
Triticum aestivum [21]
  Activity: 46%
Triticum aestivum [22]
  Activity: 100%
Sitophilus oryzae [23]
  mortality: 17.95%
Triticum aestivum [24]
  Activity: 82.5%
Triticum aestivum [25]
  Activity: 83.9%
Triticum aestivum [26]
  Activity: 84.6%
Sitophilus oryzae [27]
  mortality: 100%
Sitophilus oryzae [28]
  mortality: 11.9%
Sitophilus oryzae [29]
  mortality: 100%
Triticum aestivum [30]
  Activity: 97.4%
